Results reported in PubChem BioAssay (NCI).
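Method: 48-hour compound exposure of cells in 96-well plates, five concentrations, linear interpolation of endpoints. GI50: concentration for 50% inhibition of growth. The concentration for full growth arrest is given as TGI.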

Assays:
Assay in all cases: NCI-60 cell line screen, 48 h
[1] = tested on: BT-549 breast
[2] = tested on: SN12C renal
[3] = tested on: CAKI-1 renal
[4] = tested on: IGROV1 ovarian
[5] = tested on: NCI-H226 lung
[6] = tested on: MCF7 breast
[7] = tested on: SW-620 colon
[8] = tested on: HCC-2998 colon
[9] = tested on: MDA-MB-435
[10] = tested on: A498 renal

COc1cccc2c1C(=O)c1c(O)c3c(c(O)c1C2=O)C[C@@](O)(C(=O)CO)C[C@@H]3OC1CC2C(OCN2CN2COC3C(C)OC(O[C@H]4C[C@](O)(C(=O)CO)Cc5c(O)c6c(c(O)c54)C(=O)c4c(OC)cccc4C6=O)CC32)C(C)O1 (stereo partly specified)
GI50 [1]: 0.024 µM | TGI [1]: > 0.46 µM | GI50 [2]: 0.00924 µM | TGI [2]: 0.101 µM | GI50 [3]: 0.000878 µM | TGI [3]: 0.00708 µM | GI50 [4]: 0.0014 µM | TGI [4]: 0.127 µM | GI50 [5]: 0.00981 µM | TGI [5]: 0.0584 µM | GI50 [6]: 0.00264 µM | TGI [6]: 0.12 µM | GI50 [7]: 0.00577 µM | TGI [7]: > 1 µM | GI50 [8]: 0.0138 µM | TGI [8]: 0.0441 µM | GI50 [9]: 0.013 µM | TGI [9]: 0.0391 µM | GI50 [10]: 0.0196 µM | TGI [10]: 0.0821 µM

COc1cc(/C=C/C(=O)c2cccc(-n3cc(-c4ccccc4)[nH]c3=O)c2)ccc1O
GI50 [1]: 2.91 µM | TGI [1]: 14.7 µM | GI50 [2]: 3.02 µM | TGI [2]: 12 µM | GI50 [3]: 4.47 µM | TGI [3]: 15.2 µM | GI50 [4]: 2.22 µM | TGI [4]: 7.28 µM | GI50 [5]: 6.35 µM | TGI [5]: 17.8 µM | GI50 [6]: 1.94 µM | TGI [6]: 6.65 µM | GI50 [7]: 2.48 µM | TGI [7]: 6.3 µM | GI50 [8]: 1.92 µM | TGI [8]: 4.21 µM | GI50 [9]: 2.58 µM | TGI [9]: 8.91 µM | GI50 [10]: 1.68 µM | TGI [10]: 3.87 µM

CCN(CC)CCNc1ccc2nc(C)n3c4ccc(OC)cc4c(=O)c1c23
TGI [1]: 22.5 µM | TGI [2]: 15.2 µM | TGI [3]: 13 µM | TGI [4]: 4.26 µM | TGI [5]: 7.11 µM | TGI [6]: 6.57 µM | TGI [7]: 9.27 µM | TGI [8]: 6.2 µM | TGI [9]: 27.1 µM | TGI [10]: 20.6 µM

C[C@H]1CCC/C=C/[C@@H]2C[C@H](O)C[C@H]2[C@H](O)C(O)C(O)C(=O)O1 (stereo partly specified)
GI50 [1]: 2.72 µM | TGI [1]: > 100 µM | GI50 [2]: 2.66 µM | TGI [2]: 7.63 µM | GI50 [3]: 3.78 µM | TGI [3]: 46 µM | GI50 [4]: 2.96 µM | TGI [4]: 11.7 µM | GI50 [5]: 0.189 µM | TGI [5]: 0.399 µM | GI50 [6]: 2.64 µM | TGI [6]: > 20.1 µM | GI50 [7]: 3.26 µM | TGI [7]: > 100 µM | GI50 [8]: 2.15 µM | TGI [8]: > 22.4 µM | GI50 [9]: 3.74 µM | TGI [9]: > 100 µM | GI50 [10]: 2.29 µM | TGI [10]: 7.96 µM

CC(C)C[C@H](NC(=O)[C@@H](N)Cc1cccc2ccccc12)B(O)O
GI50 [1]: 0.87 µM | GI50 [2]: 1.39 µM | GI50 [3]: 0.225 µM | GI50 [4]: 0.836 µM | TGI [5]: < 0.0186 µM | GI50 [6]: 0.389 µM | TGI [6]: 50 µM | GI50 [7]: 0.231 µM | GI50 [8]: 0.021 µM | GI50 [9]: 0.114 µM | GI50 [10]: 0.202 µM

CCn1cnc(C[C@H](NC(=O)[C@@H](NC(=O)Nc2cc(C(F)(F)F)cc(C(F)(F)F)c2)C(C)(C)C)C(=O)OC)c1
GI50 [1]: > 10 µM | TGI [1]: > 10 µM | GI50 [2]: > 10 µM | TGI [2]: > 10 µM | GI50 [3]: > 10 µM | TGI [3]: > 10 µM | GI50 [4]: > 10 µM | TGI [4]: > 10 µM | GI50 [5]: > 10 µM | TGI [5]: > 10 µM | GI50 [6]: > 10 µM | TGI [6]: > 10 µM | GI50 [7]: > 10 µM | TGI [7]: > 10 µM | GI50 [8]: > 10 µM | TGI [8]: > 10 µM | GI50 [9]: > 10 µM | TGI [9]: > 10 µM | GI50 [10]: > 10 µM | TGI [10]: > 10 µM

N#C/C(=C\c1ccccn1)c1nc2ccccc2o1
GI50 [1]: 17.3 µM | TGI [1]: 36.1 µM | GI50 [2]: 32.5 µM | TGI [2]: > 100 µM | GI50 [3]: 35.1 µM | TGI [3]: > 100 µM | GI50 [4]: 18.4 µM | TGI [4]: > 100 µM | GI50 [5]: 39.3 µM | TGI [5]: > 100 µM | GI50 [6]: 16 µM | TGI [6]: > 100 µM | GI50 [7]: 17.5 µM | TGI [7]: 37.1 µM | GI50 [8]: 25.1 µM | TGI [8]: 50.2 µM | GI50 [9]: 34.6 µM | TGI [9]: > 100 µM | GI50 [10]: 30.4 µM | TGI [10]: 99.2 µM

C=CC(=O)N1CCN(c2nc(OC[C@@H]3CCCN3C)nc3c(F)c(-c4nc(N)cc(C)c4C(F)(F)F)c(Cl)cc23)[C@@H](C)C1
GI50 [1]: 1.71 µM | TGI [1]: 3.32 µM | GI50 [2]: 1.6 µM | TGI [2]: 3.62 µM | GI50 [3]: 1.51 µM | TGI [3]: 2.95 µM | GI50 [4]: 1.7 µM | TGI [4]: 3.54 µM | GI50 [5]: 1.88 µM | TGI [5]: 4.52 µM | GI50 [6]: 1.13 µM | TGI [6]: 2.51 µM | GI50 [7]: 1.95 µM | TGI [7]: 3.71 µM | GI50 [8]: 1.25 µM | TGI [8]: 2.57 µM | GI50 [9]: 2.09 µM | TGI [9]: 4.65 µM | GI50 [10]: 5.34 µM | TGI [10]: 19.3 µM

O=NN(CC(=O)NNc1ccccc1)CC(=O)NNc1ccccc1
GI50 [1]: > 28.7 µM | TGI [1]: > 100 µM | GI50 [2]: > 100 µM | TGI [2]: > 100 µM | GI50 [3]: 3.77 µM | TGI [3]: > 100 µM | GI50 [4]: > 64 µM | TGI [4]: > 100 µM | GI50 [5]: > 100 µM | TGI [5]: > 100 µM | GI50 [6]: 8.13 µM | TGI [6]: > 100 µM | GI50 [7]: 4.21 µM | TGI [7]: > 100 µM | GI50 [8]: 4.89 µM | TGI [8]: > 100 µM | GI50 [9]: > 20.1 µM | TGI [9]: > 100 µM | GI50 [10]: > 100 µM | TGI [10]: > 100 µM

O=C1OC(=O)c2c1cc1cc3c(cc1c2-c1ccc2c(c1)OCO2)OCO3
TGI [1]: > 100 µM | TGI [2]: > 100 µM | TGI [3]: > 100 µM | TGI [4]: > 100 µM | TGI [5]: > 100 µM | TGI [6]: > 100 µM | TGI [7]: > 100 µM | TGI [8]: > 100 µM | TGI [9]: > 100 µM | TGI [10]: > 100 µM

O=C(N/N=C/c1coc2ccc(Cl)cc2c1=O)c1cc(O)c(O)c(O)c1
GI50 [1]: 23.3 µM | TGI [1]: 96.6 µM | GI50 [2]: 24.1 µM | TGI [2]: 65.4 µM | GI50 [3]: 25 µM | TGI [3]: 70 µM | GI50 [4]: 44.5 µM | TGI [4]: > 100 µM | GI50 [5]: 26.1 µM | TGI [5]: 68.4 µM | GI50 [6]: 75.7 µM | TGI [6]: > 100 µM | GI50 [7]: 25.8 µM | TGI [7]: 97.4 µM | GI50 [8]: 15.9 µM | TGI [8]: 35.3 µM | GI50 [9]: 27.2 µM | TGI [9]: 66.7 µM | GI50 [10]: 13.6 µM | TGI [10]: 42.3 µM

O=C1/C(=C/c2ccccc2)CN(C(=O)/C=C/c2ccccc2)C/C1=C\c1ccccc1
TGI [1]: 4.7 µM | TGI [2]: 16 µM | TGI [3]: 99.4 µM | TGI [4]: 22.2 µM | TGI [5]: 60.6 µM | TGI [6]: 3.83 µM | TGI [7]: 5.28 µM | TGI [8]: 14.2 µM | TGI [9]: 3.74 µM | TGI [10]: 92 µM

O=C1/C(=C/c2ccc([N+](=O)[O-])s2)Oc2ccc(Br)cc21
GI50 [1]: 0.257 µM | TGI [1]: 0.741 µM | GI50 [2]: 0.567 µM | TGI [2]: 2.93 µM | GI50 [3]: 1.16 µM | TGI [3]: 9.42 µM | GI50 [4]: 0.309 µM | TGI [4]: 0.964 µM | GI50 [5]: 1.14 µM | TGI [5]: 2.84 µM | GI50 [6]: 0.309 µM | TGI [6]: 1.87 µM | GI50 [7]: 0.242 µM | TGI [7]: 0.664 µM | GI50 [8]: 0.443 µM | TGI [8]: 1.68 µM | GI50 [9]: 0.397 µM | TGI [9]: 1.78 µM | GI50 [10]: 2.31 µM | TGI [10]: 6.32 µM

COC(=O)c1cc2c3cc(Cl)ccc3[nH]c2c2ncccc12
GI50 [1]: > 100 µM | TGI [1]: > 100 µM | GI50 [2]: > 100 µM | TGI [2]: > 100 µM | GI50 [3]: > 100 µM | TGI [3]: > 100 µM | GI50 [4]: 77.4 µM | TGI [4]: > 100 µM | GI50 [5]: > 100 µM | TGI [5]: > 100 µM | GI50 [6]: > 100 µM | TGI [6]: > 100 µM | GI50 [7]: > 100 µM | TGI [7]: > 100 µM | GI50 [8]: > 100 µM | TGI [8]: > 100 µM | GI50 [9]: > 100 µM | TGI [9]: > 100 µM | GI50 [10]: > 100 µM | TGI [10]: > 100 µM
